Measurements published in patent publication US20230072392A1, “NASAL SPRAY” (BREATHE BETTER LLC, priority 2021, published 2023).

What was measured:
individuals [1] = test: Long-term nasal use: rebound effect (rebound congestion); assay type: in vivo, human; details: oxymetazoline or salts at less than 0.050%, preferably 0.025%
Description: In an embodiment of the nasal spray composition, the nasal spray composition may include effective amounts of a decongestant or vasoconstrictor, such as oxymetazoline, or pharmaceutical acceptable salts thereof, such as oxymetazoline hydrochloride. In an illustrative embodiment, the effective amount of oxymetazoline or pharmaceutical acceptable salts thereof, is less than 0.050%, between less than 0.050% and 0.010%, and more preferably, 0.025% or about 0.025%. Oxymetazoline, a member of the imidazole group, binds and activates alpha-2 adrenergic receptors. Upon nasal administration, imidazole group compounds constrict the arterioles in the nose, resulting in decreasing congestion. Concentrations of oxymetazoline (0.050%) utilized in the over-the-counter sprays have been proven to return symptoms to a degree stronger than present initially upon discontinuation of the drug. This is called the rebound effect, or rebound congestion (rhinitis medicamentosa, chemical rhinitis, or nasal spray addiction). The rebound effect may occur in as early as 3 days of use, but typically occurs in 3-5 days and sometimes 5-7 days of use. […] As such, the nasal spray according to the present invention can be used for a time period greater than 5-7 days without the risk of suffering from any rebound effect. […]

individuals [2] = details: oxymetazoline 0.050% in over-the-counter sprays, days of use; cited from earlier work

SMILES: Cc1cc(C(C)(C)C)c(O)c(C)c1CC1=NCCN1 [oxymetazoline]
- effect on snoring or sleep apnea and rebound effect (individuals [1]): effective at reducing or minimizing snoring or sleep apnea while preventing the rebound effect
- rebound effect: earliest onset (may occur in as early as) (individuals [2]): 3 days
- rebound effect: onset sometimes (individuals [2]): 5 to 7 days
- rebound effect: typical onset (individuals [2]): 3 to 5 days
